From patent US12240816B2, “Deuterated compounds and uses thereof” (Aldeyra Therapeutics, Inc., priority 2015, dated 2025)
Where “and” joins values, the source holds several entries; their conditions need not be identical. Equal values may be shown once. Entries after “also recorded” stand apart in the source; their conditions may differ. Marks after values point to notes of the source that are not given here.

Experiments:
[1] = biological target: enzyme and uptake assay panel targets (Table 36) (Homo sapiens, UniProt Q9BYF1); assay: biochemical; assay type: biochemical; settings: ACE-2 (h); reference compound
Sequence of enzyme and uptake assay panel targets (Table 36) (Homo sapiens, UniProt Q9BYF1) (Q9BYF1 18-805): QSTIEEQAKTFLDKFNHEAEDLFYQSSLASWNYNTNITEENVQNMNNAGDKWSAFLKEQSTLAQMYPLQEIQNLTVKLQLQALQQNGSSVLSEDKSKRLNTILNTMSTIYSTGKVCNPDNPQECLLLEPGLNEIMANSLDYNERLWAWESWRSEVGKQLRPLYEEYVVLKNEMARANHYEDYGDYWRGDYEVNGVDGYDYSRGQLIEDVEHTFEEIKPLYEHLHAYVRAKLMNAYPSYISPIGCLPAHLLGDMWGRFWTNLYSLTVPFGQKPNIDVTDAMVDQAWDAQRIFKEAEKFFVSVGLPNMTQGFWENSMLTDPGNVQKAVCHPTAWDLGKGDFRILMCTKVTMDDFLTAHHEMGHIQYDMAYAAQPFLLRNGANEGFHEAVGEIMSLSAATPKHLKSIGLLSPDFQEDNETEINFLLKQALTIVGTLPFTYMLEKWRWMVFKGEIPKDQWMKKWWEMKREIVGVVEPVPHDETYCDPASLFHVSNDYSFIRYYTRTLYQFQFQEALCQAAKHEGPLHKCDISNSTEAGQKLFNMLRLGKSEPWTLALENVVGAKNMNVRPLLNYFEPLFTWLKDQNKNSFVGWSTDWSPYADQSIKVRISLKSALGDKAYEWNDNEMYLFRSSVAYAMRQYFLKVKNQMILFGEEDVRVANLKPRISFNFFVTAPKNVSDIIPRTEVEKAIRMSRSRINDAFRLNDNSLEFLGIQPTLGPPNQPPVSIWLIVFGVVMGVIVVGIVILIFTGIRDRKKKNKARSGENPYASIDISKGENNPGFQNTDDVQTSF

rat hippocampal cultures [2] = assay: Propidium iodide cell death assay, protection from hydrogen peroxide toxicity; assay type: cell-based; settings: for % of Control (PI) / PI signal, replicate wells: CBD 10 μM + 10 μM hydrogen peroxide; for Cell death (Propidium Iodide), % of Control / Cell death (Propidium Iodide), Mean / Cell death (Propidium Iodide), individual values: 5 hours
rat hippocampal cultures [3] = assay: cells; assay type: cell-based; settings: for % of Control (CFDA) / CFDA signal, Mean: CBD 10 μM + 10 μM hydrogen peroxide
MT3 (ML2) = biological target: T1, MT3 (ML2) (Mesocricetus auratus, UniProt A0ABM2YAB8); assay: MT3 (ML2) (agonist radioligand) binding assay; settings: MT3 (ML2) (agonist radioligand)
T1 sequence (A0ABM2YAB8 1-231): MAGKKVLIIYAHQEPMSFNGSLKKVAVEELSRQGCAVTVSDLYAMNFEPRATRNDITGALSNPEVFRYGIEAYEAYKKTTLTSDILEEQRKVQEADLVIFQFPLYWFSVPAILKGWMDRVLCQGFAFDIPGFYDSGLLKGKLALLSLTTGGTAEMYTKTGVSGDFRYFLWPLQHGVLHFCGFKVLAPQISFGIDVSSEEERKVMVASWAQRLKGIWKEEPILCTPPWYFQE

[4] = biological target: enzyme and uptake assay panel targets (Table 36) (Mus musculus, UniProt P29477); assay: biochemical; assay type: biochemical; settings: inducible NOS; reference compound
Sequence of enzyme and uptake assay panel targets (Table 36) (Mus musculus, UniProt P29477) (P29477 whole entry): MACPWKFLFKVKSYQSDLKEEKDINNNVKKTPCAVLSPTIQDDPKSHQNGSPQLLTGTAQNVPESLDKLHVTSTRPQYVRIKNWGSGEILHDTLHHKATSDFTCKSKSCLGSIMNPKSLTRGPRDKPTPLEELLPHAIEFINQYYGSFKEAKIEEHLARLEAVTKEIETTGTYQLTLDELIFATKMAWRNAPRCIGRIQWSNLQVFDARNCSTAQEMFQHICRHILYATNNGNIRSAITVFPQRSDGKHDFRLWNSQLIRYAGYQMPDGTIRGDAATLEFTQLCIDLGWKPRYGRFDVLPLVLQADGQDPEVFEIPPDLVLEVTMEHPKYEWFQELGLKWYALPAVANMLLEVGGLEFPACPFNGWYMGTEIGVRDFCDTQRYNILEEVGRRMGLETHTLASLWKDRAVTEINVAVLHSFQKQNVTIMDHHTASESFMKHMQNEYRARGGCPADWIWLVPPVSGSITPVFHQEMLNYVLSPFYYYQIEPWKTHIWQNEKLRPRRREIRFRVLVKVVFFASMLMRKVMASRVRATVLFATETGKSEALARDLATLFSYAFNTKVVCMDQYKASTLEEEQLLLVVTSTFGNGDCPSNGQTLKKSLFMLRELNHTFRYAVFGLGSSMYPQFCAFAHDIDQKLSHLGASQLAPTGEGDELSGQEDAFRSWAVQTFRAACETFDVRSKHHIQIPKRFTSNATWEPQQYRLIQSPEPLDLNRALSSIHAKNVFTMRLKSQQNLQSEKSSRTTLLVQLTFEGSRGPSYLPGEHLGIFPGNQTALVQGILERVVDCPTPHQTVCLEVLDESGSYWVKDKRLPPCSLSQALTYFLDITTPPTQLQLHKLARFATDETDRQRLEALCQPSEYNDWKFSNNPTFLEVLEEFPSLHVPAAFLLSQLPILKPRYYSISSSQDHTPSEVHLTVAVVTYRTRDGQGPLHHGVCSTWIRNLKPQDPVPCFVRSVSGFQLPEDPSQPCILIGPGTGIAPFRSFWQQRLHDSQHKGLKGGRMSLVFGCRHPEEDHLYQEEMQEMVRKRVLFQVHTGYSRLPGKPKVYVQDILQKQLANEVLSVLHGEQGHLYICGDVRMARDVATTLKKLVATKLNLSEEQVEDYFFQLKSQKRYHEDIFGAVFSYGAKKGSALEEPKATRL

[5] = 5 h, Experiment 10 (vehicle plates, Tables 19 and 20)
[6] = positive control CBD + HP 10 μM
[7] = 5 h, Experiment 9 (vehicle plates, Tables 17 and 18)
[8] = positive control CBD + HP 10 μM, 5 hours
[9] = Example 13, PI, DMSO, 10 μM hydrogen peroxide, 5 h, 0.1 to 300 μM tested
[10] = Example 13, CFDA, DMSO, 10 μM hydrogen peroxide, 5 h, 0.1 to 300 μM tested
[11] = 0.1 μM + 10 μM hydrogen peroxide, DMSO
[12] = 1 μM + 10 μM hydrogen peroxide, DMSO
[13] = 10 μM + 10 μM hydrogen peroxide, DMSO
[14] = 100 μM + 10 μM hydrogen peroxide, DMSO
[15] = 300 μM + 10 μM hydrogen peroxide, DMSO
[16] = 0.1 μM + 10 μM hydrogen peroxide, 5 hours, DMSO
[17] = 1 μM + 10 μM hydrogen peroxide, 5 hours, DMSO
[18] = 10 μM + 10 μM hydrogen peroxide, 5 hours, DMSO
[19] = 100 μM + 10 μM hydrogen peroxide, 5 hours, DMSO
[20] = 300 μM + 10 μM hydrogen peroxide, 5 hours, DMSO

## CC(=O)NCC(=O)N[C@@H](CC(=O)O)C(=O)N[C@@H](Cc1ccc(O)cc1)C(=O)N[C@@H](CO)C(=O)N[C@@H](Cc1c[nH]cn1)C(=O)N[C@H]1CSSC[C@@H](C(=O)N[C@H](C(=O)N[C@@H](Cc2ccc(O)cc2)C(=O)N2CCC[C@H]2C(=O)N[C@@H](CC(=O)O)C(=O)N2CCC[C@H]2C(=O)N[C@@H](CCC(=O)O)C(=O)NCC(=O)NCC(=O)NCC(N)=O)[C@@H](C)O)NC(=O)[C@H](CCCCN)NC(=O)[C@H](Cc2c[nH]c3ccccc23)NC(=O)[C@H](Cc2c[nH]c3ccccc23)NC(=O)[C@@H]2CCCN2C(=O)[C@H](Cc2ccc(O)cc2)NC(=O)[C@H](Cc2ccc(O)cc2)NC(=O)[C@H](CCCNC(=N)N)NC(=O)[C@H](CC(C)C)NC(=O)[C@@H]2CCCN2C(=O)[C@H](CO)NC1=O [Ac-GG-26-NH2]
[1]
  IC50: 290 nM
  nH: 2.4

## C=C(C)[C@@H]1CCC(C)=C[C@H]1c1c(O)cc(CCCCC)cc1O [CBD, cannabidiol, reference compound]
Rat hippocampal cultures [2]; [5]
  % of Control (PI): 112 ± 7%
  PI signal, replicate wells: 184 and 156 and 180
Rat hippocampal cultures [2]; 5 h, Table 10 plate
  % of Control (PI): 97 ± 9%
  PI signal, replicate wells: 117 and 180 and 121 and 192
Rat hippocampal cultures [2]; 5 h, Table 12 plate
  % of Control (PI): 102 ± 11%
  PI signal, replicate wells: 125 and 117 (2×) and 180 (2×)
Rat hippocampal cultures [2]; 5 h, Table 14 plate
  % of Control (PI): 108 ± 11%
  PI signal, replicate wells: 121 and 200 and 180 and 117
Rat hippocampal cultures [2]; 5 h, Table 16 plate
  % of Control (PI): 103 ± 8%
  PI signal, replicate wells: 129 and 184 and 180 and 117
Rat hippocampal cultures [2]; [6]
  Cell death (Propidium Iodide), % of Control: 93 ± 9% and 91 ± 10% and 91 ± 8%
  Cell death (Propidium Iodide), Mean: 154* and 136* and 145*
  Cell death (Propidium Iodide), individual values: 171 and 123 and 197 and 119 and 83 and 147 and 164 and 139 and 104 and 175
Rat hippocampal cultures [3]; [7]
  % of Control (CFDA): 99 ± 7%
  CFDA signal, Mean: 43543*
Rat hippocampal cultures [3]; 5 h, Table 9 plate
  % of Control (CFDA): 105 ± 4%
  CFDA signal, Mean: 48894*
Rat hippocampal cultures [3]; 5 h, Table 11 plate
  % of Control (CFDA): 103 ± 5%
  CFDA signal, Mean: 44366*
Rat hippocampal cultures [3]; 5 h, Table 13 plate
  % of Control (CFDA): 102 ± 12%
  CFDA signal, Mean: 40858*
Rat hippocampal cultures [3]; 5 h, Table 15 plate
  % of Control (CFDA): 100 ± 7%
  CFDA signal, Mean: 41741*
Rat hippocampal cultures [3]; [8]
  Neuronal viability (CFDA), % of Control: 101 ± 3% and 97 ± 4%
  Neuronal viability (CFDA), Mean: 57221* and 57590* and 55059*

## COc1ccc2[nH]cc(CCNC(C)=O)c2c1 [melatonin]
MT3 (ML2)
  IC50: 72 nM
  Ki: 71 nM
  nH: 0.8

## CC(=N)NCc1cccc(CN)c1 [Compound 1400W]
[4]
  IC50: 40 nM
  nH: 1.4

## CC(C)(O)c1nc2ncccc2cc1N [ALD-5]
Rat hippocampal cultures [2]; [9]
  EC50 ± SE: Inactive
  Full Efficacy Concentration: Inactive
  No effect Concentration: Inactive
Rat hippocampal cultures [2]; PI, 0.1 to 300 μM, DMSO, 10 μM hydrogen peroxide, 5 h
  protection from cell death: no statistically significant protection from cell death; also recorded: did not produce statistically significant protection from cell death
Rat hippocampal cultures [3]; [10]
  EC50 ± SE: Inactive
  Full Efficacy Concentration: Inactive
  No effect Concentration: Inactive

## [2H]C([2H])([2H])C(O)(c1nc2ccc(Cl)cc2cc1N)C([2H])([2H])[2H] [ALD6]
Rat hippocampal cultures [2]; [11]
  Cell death (Propidium Iodide), % of Control: 165 ± 15%
  Cell death (Propidium Iodide), Mean: 273
  Cell death (Propidium Iodide), individual values: 294 and 242 and 356 and 225 and 250
Rat hippocampal cultures [2]; [12]
  Cell death (Propidium Iodide), % of Control: 120 ± 5%
  Cell death (Propidium Iodide), Mean: 198*
  Cell death (Propidium Iodide), individual values: 223 and 183 (2×) and 189 and 214
Rat hippocampal cultures [2]; [13]
  Cell death (Propidium Iodide), % of Control: 107 ± 5%
  Cell death (Propidium Iodide), Mean: 176*
  Cell death (Propidium Iodide), individual values: 189 (2×) and 139 and 179 and 183
Rat hippocampal cultures [2]; [14]
  Cell death (Propidium Iodide), % of Control: 108 ± 7%
  Cell death (Propidium Iodide), Mean: 178*
  Cell death (Propidium Iodide), individual values: 206 and 189 and 135 and 167 and 193
Rat hippocampal cultures [2]; [15]
  Cell death (Propidium Iodide), % of Control: 107 ± 6%
  Cell death (Propidium Iodide), Mean: 176*
  Cell death (Propidium Iodide), individual values: 189 (2×) and 147 and 197 and 159
Rat hippocampal cultures [3]; [16]
  Neuronal viability (CFDA), % of Control: 59 ± 3%
  Neuronal viability (CFDA), Mean: 34394
Rat hippocampal cultures [3]; [17]
  Neuronal viability (CFDA), % of Control: 65 ± 5%
  Neuronal viability (CFDA), Mean: 38055
Rat hippocampal cultures [3]; [18]
  Neuronal viability (CFDA), % of Control: 83 ± 4%
  Neuronal viability (CFDA), Mean: 48055*
Rat hippocampal cultures [3]; [19]
  Neuronal viability (CFDA), % of Control: 98 ± 4%
  Neuronal viability (CFDA), Mean: 57123*
Rat hippocampal cultures [3]; [20]
  Neuronal viability (CFDA), % of Control: 98 ± 4%
  Neuronal viability (CFDA), Mean: 56976*
  Neuronal viability (CFDA), individual values: 53184 (3×) and 59551 and 65778
